A short description of one data set: Solubility in water. It is filed as physicochemical.
The subject of data set [1] is all microorganisms tested. Briefly: Broth microdilution MIC, statement for all microorganisms tested. In kind it is cell-based. The protocol:
Antibacterial assays were conducted in vitro using the broth microdilution method. The minimum inhibitory concentration (MIC) is the smallest concentration of antibacterial agent at which bacterial growth is not observed. MIC values were determined for 4 Gram-positive bacteria (methicillin-resistant Staphylococcus aureus ATCC 43300 (MRSA), Bacillus subtilis ATCC 6633, Kocuria rhizophila 9341, Staphylococcus epidermidis ATCC 12228), 3 Gram-negative bacteria (Klebsiella pneumoniae ATCC 4532, Pseudomonas aeruginosa ATCC 27853, Escherichia coli ATCC 8739) and the fungal strain, Candida albicans ATCC 10231. Frozen stocks of bacteria were incubated on Muller Hinton agar plates for 24 h at 37 °C. From this culture, a bacterial suspension of 1 × 10^6 colony forming units CFU/mL was prepared in MHB (pH = 7.3). Two dilutions of pure surfactants and their binary mixtures were prepared in MH broth to obtain a final concentration ranging from 4 to 454 μM in the microtiter plates.
Then, 10 μL of nutrient broth culture of each microorganism was added to achieve a final density of ca. 5 × 10^5 CFU/mL. The cultures were incubated for 24 h at 37 °C. Every assay was repeated three times.

Data on one compound can be found in PMC7727793, “Aggregation Behavior, Antibacterial Activity and Biocompatibility of Catanionic Assemblies Based on Amino Acid-Derived Surfactants” (International Journal of Molecular Sciences, 2020).

For orientation: MIC means the lowest concentration that inhibits growth of the organism.

Entries after “also recorded” stand apart in the source; their conditions may differ.

For the compound `CCCCCCCCCCCC(=O)N[C@@H](CCCCNC(C)=O)C(=O)O` [C12C3L, N^α-lauroyl-N^εacetyl lysine], the Solubility in water entry in the data set “Solubility in water” is listed as “too low to determine a CMC; also recorded: not soluble in water”. Further, the MIC in data set [1] (K. rhizophila, B. subtilis, S. epidermidis, S. aureus, K. pneumoniae, E. coli, P. aeruginosa, C. albicans, higher concentrations precipitated, read-out: MIC for all microorganisms tested) is greater than 113 µM. Further, the “Antibacterial activity (in words)” value in data set [1] (tested microorganisms) is “did not show activity”.
